For experiment [1], the system named is L1210 cells. Briefly: In vivo study with CDF1 mice inoculated with L1210 cells. The protocol:
Two groups of CDF1 mice were inoculated with 1 × 10^5 L1210 cells/animal intraperitoneally. Two days later, one group of six mice received a single intraperitoneal injection (150 mg/Kg) of compound 5 (5'-[3-(2-chloroethyl)-3-nitrosoureido]-5'-deoxythymidine) and the control group was administered an equal volume of vehicle.

Experiment [2] relates to L1210 leukemia cells. Briefly: Culture study with L1210: inhibition of replication/growth of L1210 cells in vitro. To be noted: Mus musculus, read-out: ED50 (drug concentration needed to inhibit cell growth by 50%). It counts as cell-based. The protocol:
The effect of the compounds on the growth of L1210 cells in vitro was used as a measure of cytotoxicity. Suspension cultures were grown in Fischer's media supplemented with 10% horse serum at 37°. 72 Hours after addition of the nitrosoureas, cell numbers were determined in two independent samples, in duplicate, using a Coulter counter, for each concentration tested. ED50 values were estimated from dose-response curves compiled from at least three separate experiments and represent the drug concentration needed to inhibit cell growth by 50%.

Experiment [3] concerns L1210 cells. Briefly: Reversal of cytotoxicity of nitrosourea analogs of thymidine by pyrimidine deoxyribonucleosides (inhibition study in L1210 cultures). The format is cell-based. To be noted: for Percent Reversal: nitrosourea analog 5 μM.
The mark [4] stands for this setting: single intraperitoneal injection 150 mg/kg, 2 days after 1 × 10^5 L1210 cells, CDF1 mice.
Where [5] appears, read: reversing agent deoxycytidine 0 μM.
Where [6] appears, read: reversing agent deoxycytidine 5 μM.
Where [7] appears, read: reversing agent deoxycytidine 25 μM.
The mark [8] stands for this setting: reversing agent deoxyuridine 0 μM.
Where [9] appears, read: reversing agent deoxyuridine 5 μM.
The mark [10] stands for this setting: reversing agent deoxyuridine 25 μM.
Setting [11] is: reversing agent thymidine 25 μM.

Where two headings read alike, the source gives them in different places.

Consider `Cc1cn([C@H]2C[C@H](O)[C@@H](CNC(=O)N(CCCl)N=O)O2)c(=O)[nH]c1=O` [Compound 5, 5'-[3-(2-chloroethyl)-3-nitrosoureido]-5'-deoxythymidine], for which the “animals survived more than 60 days” value in experiment [1] (single intraperitoneal injection 150 mg/Kg, 2 days after 1 × 10^5 L1210 cells, CDF1 mice) is given as 2/6. The molecule also had a tumor cell kill in experiment [1] (single intraperitoneal injection 150 mg/Kg, L1210, CDF1 mice) of approximately 5 log. Besides, in experiment [1] (setting [4]), the “increase in life span of the dying animals over the controls” value is 211% and the “long term survivors (>60 days)” value was 33%.

Consider `Cc1cn([C@H]2C[C@H](NC(=O)N(C)N=O)[C@@H](CO)O2)c(=O)[nH]c1=O` [Compound 11, 3'-(3-methyl-3-nitrosoureido)-3'-deoxythymidine], for which the IC50 in experiment [2] (L1210 cells in culture, 72 hours, Coulter counter, Fischer's media with 10% horse serum, 37°) was 1000 nM. Also, the inhibition – broadly, the drop in the measured response relative to a control, in per cent – at 5 µM in experiment [3] (Mus musculus, compound 11 5 μM, no deoxycytidine, L1210, 72 hours, read-out: Percent Inhibition) is 100%. In addition, the “Percent Inhibition” value was 58% in experiment [3] (compound 11 5 μM + deoxycytidine 5 μM, L1210, 72 hours); 26% in experiment [3] (compound 11 5 μM + deoxycytidine 25 μM, L1210, 72 hours); 0% in experiment [3] (compound 11 5 μM + deoxycytidine 125 μM, L1210, 72 hours). For the same molecule, the “Percent Reversal” value is 0% in experiment [3] (setting [5]); 42% in experiment [3] (setting [6]); 74% in experiment [3] (setting [7]); 100% in experiment [3] (reversing agent deoxycytidine 125 μM); 0% in experiment [3] (setting [8]); 49% in experiment [3] (setting [9]). The “Percent Reversal” value in experiment [3] (setting [10]) is recorded as 81%; in experiment [3] (reversing agent thymidine 0 μM) it was 0%; in experiment [3] (reversing agent thymidine 1 μM), 21%; in experiment [3] (reversing agent thymidine 5 μM) it was 54%; in experiment [3] (setting [11]) it was 62%.

In the case of `O=NN(CCCl)C(=O)NCCCl` [BCNU, 1,3-bis(2-Chloroethyl)-1-nitrosourea, reference compound], the IC50 in experiment [2] (L1210, 72 h) was 4000 nM.

On to `Cc1cn([C@H]2C[C@H](NC(=O)N(CCCl)N=O)[C@@H](CO)O2)c(=O)[nH]c1=O` [Compound 10, 3'-[3-(2-chloroethyl)-3-nitrosoureido]-3'-deoxythymidine], for which, in experiment [2] (L1210, 72 h), the IC50 was found to be 1500 nM. Besides, the “Percent Reversal” value in experiment [3] (setting [5]) is 0%; in experiment [3] (reversing agent deoxycytidine 1 μM), 5%; in experiment [3] (setting [6]) it was 28%; in experiment [3] (setting [7]), 40%; in experiment [3] (setting [8]), 0%; in experiment [3] (reversing agent deoxyuridine 1 μM), 4%. Also, the “Percent Reversal” value is listed as 32% in experiment [3] (setting [9]); 51% in experiment [3] (setting [10]); 0% in experiment [3] (reversing agent thymidine 0 μM); 22% in experiment [3] (reversing agent thymidine 1 μM); 45% in experiment [3] (reversing agent thymidine 5 μM); 54% in experiment [3] (setting [11]).

Source of the values: US4128639A, “Nitrosourea analogs of thymidine” (Research Corporation, priority 1977, dated 1978).
